Assay results taken from patent publication US11939340B2, “CDK inhibitors and their use as pharmaceuticals” (Prelude Therapeutics Incorporated, priority 2022, dated 2024).

Columns and labels:
pRB in OVCAR3 cells = experiment: pRB ICW Assay in OVCAR3 Cells; type: cell-based; settings: Homo sapiens, OVCAR-3, incubated with compound for 2 hours, read-out: OVCAR3 p-RB ICW IC50
Experimental: pRB ICW Assay in OVCAR3 Cells
OVCAR3 cells were maintained in RPMI (Corning, Catalog #: 10-040-CV) supplemented with 10% v/v FBS (Gibco, Catalog #: 26140-079), 1% v/v Penicillin Streptomycin (Gibco, Catalog #15140-122.) OVCAR3 cells grown at log phase were trypsinized, counted, and resuspended in fresh medium to reach a final density of 6.7e4 cells/mL and 75 μL of culture were dispensed into a 384-well plate (Falcon, cat #353962) using a Multidrop Combi dispenser (Thermo Scientific). The next day, compounds were dispensed as a 9-point, ½ log serial dilution using a Tecan digital dispenser (D300e), and cells were incubated with compound for 2 hours in a humidified incubator at 37° C. A reference compound at a final concentration of 10 μM was used as a control for maximum inhibition. Each compound was tested in duplicates for each experiment. At the end of the incubation, 25 μL of 16% paraformaldehyde (Electron Microscopy, cat #15710) was slowly added to each well and the plate was incubated at room temperature (RT) for 30 minutes to fix cells. Cells were then permeabilized by incubating with 50 μL/well of wash buffer (lx PBS with 0.1% Triton X-100) 5×5 minutes, followed by 1 hour blocking with 30 μL/well of Odyssey blocking buffer (Li—COR, cat #927-40000), at RT. Anti-phosphor RB antibody (Cell signaling 8516S) was diluted 1:1000 in Odyssey blocking buffer and 20 μL was added to all wells and incubated overnight in 4° C. with gently rocking. The next day, cells were washed 5×5 min with 50 μL/well of wash buffer, followed with 1 hour incubation with secondary antibody and DRAQ5 diluted in Odyssey blocking buffer (1:500 dilution for secondary antibody and 1:2000 dilution for DRAQ5), 5×5 min washes, and one last wash with water. Plates were dried in 37° C. oven for 5 minutes and scanned using Li—COR Odyssey CLx imaging system to acquire intensities at 700 and 800 nm channels.

CDK2/Cyclin E2 = CDK2/Cyclin E2 (Homo sapiens, UniProt P24941); experiment: CDK2/CyclinE2 Enzymatic Activity Assay (TR-FRET); type: biochemical; settings: CDK2/CyclinE2 1 nM, ATP 1 mM, read-out: CDK2_El IC50
Experimental: CDK2/CyclinE2 Enzymatic Activity Assay
The inhibitory activity of compounds was evaluated in vitro using TR-FRET assay with white 384-well low volume microplate (Greiner Bio-One). CDK2/Cyclin E2 catalyzed phosphorylation of peptide in the presence and absence of compounds was measured and used in IC50 determination. Recombinant protein complex CDK2/Cyclin E2, expressed from insect cell, was purchased from ProQinase. Testing compounds were dissolved in DMSO at 1 mM and tested in 9-dose IC50 mode. The reaction mixture was prepared by mixing CDK2/CyclinE2 (1 nM final), ULight-4E-BP1 (50 nM final, Perkinelmer, TRF0128-D), and ATP (1 mM final) in assay buffer (20 mM of HEPES pH 7.4, 1 mM of EGTA, 0.05% BSA, 0.005% Tween 20, and 1 mM TCEP). The compound of interest in DMSO was added to each well in 3-fold serial dilution by dispenser (TECAN D300E) to make a 9.9 μL of reaction mixture. After 20 minutes preincubation at room temperature, 0.1 μL MgCl2 (10 mM final) was added to initiate the reaction. Following a 45 minute incubation at 37° C., the reaction was stopped by addition of 2 μL of quenching buffer consisting of Lance detection buffer (Perkinelmer CR97-100C), LANCE Ultra Europium-anti-P-4E-BP1 (Perkinelmer, TRF0216-D), EDTA, and incubate at room temperature for additional 60 minutes in the dark. The reaction signal was measured by Envision multimode plate reader (PerkinElmer, 2102-0010). IC50 values were determined by fitting the data to the standard 4 parameters with Hill Slope using GraphPad Prism software.

CDK4/Cyclin D1 = biological target: T1, CDK4/Cyclin D1 (Homo sapiens, UniProt P11802); experiment: CDK4/CyclinD1 Enzymatic Activity Assay (TR-FRET); type: biochemical; settings: CDK4/CyclinD1 1 nM, ATP 2 mM, read-out: CDK4_D1 IC50
T1 construct: purchased ProQinase; host or cells: insect cell
Experimental: CDK4/CyclinD1 Enzymatic Activity Assay
The inhibitory activity of compounds was evaluated in vitro using TR-FRET assay with white 384-well low volume microplate (Greiner Bio-One). CDK4/Cyclin D1 catalyzed phosphorylation of peptide in the presence and absence of compounds was measured and used in IC50 determination. Recombinant protein complex CDK4/Cyclin D1, expressed from insect cell, was purchased from ProQinase. Testing compounds were dissolved in DMSO at 1 mM and tested in 9-dose IC50 mode. The reaction mixture was prepared by mixing CDK4/CyclinD1 (1 nM final), ULight-4E-BP1 (100 nM final, Perkinelmer, TRF0128-D), and ATP (2 mM final) in assay buffer (20 mM of HEPES pH 7.4, 1 mM of EGTA, 0.05% BSA, 0.005% Tween 20, and 1 mM TCEP). The compound of interest in DMSO was added to each well in 3-fold serial dilution by the dispenser (TECAN D300E) to make a 9.9 μL of reaction mixture. After 20 minutes preincubation at room temperature, 0.1 μL MgCl2 (10 mM final) was added to initiate the reaction. Following a 45 minute incubation at 37° C., the reaction was stopped by addition of 2 μL of quenching buffer consisting of Lance detection buffer (Perkinelmer CR97-100C), LANCE Ultra Europium-anti-P-4E-BP1 (Perkinelmer, TRF0216-D), EDTA, and incubated at room temperature for additional 60 minutes in dark. The reaction signal was measured by Envision multimode plate reader (PerkinElmer, 2102-0010). IC50 values were determined by fitting the data to the standard 4 parameters with Hill Slope using GraphPad Prism software.

T1 sequence (P11802 whole entry): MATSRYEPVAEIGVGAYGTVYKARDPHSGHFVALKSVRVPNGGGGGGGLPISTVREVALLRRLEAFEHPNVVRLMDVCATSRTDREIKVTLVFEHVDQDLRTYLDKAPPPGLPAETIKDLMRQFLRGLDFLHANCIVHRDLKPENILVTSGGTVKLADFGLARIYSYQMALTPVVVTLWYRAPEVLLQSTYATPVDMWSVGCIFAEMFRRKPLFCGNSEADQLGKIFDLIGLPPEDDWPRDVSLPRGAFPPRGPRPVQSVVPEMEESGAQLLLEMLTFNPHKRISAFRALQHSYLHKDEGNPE
T1 sequence (P24385 whole entry partner): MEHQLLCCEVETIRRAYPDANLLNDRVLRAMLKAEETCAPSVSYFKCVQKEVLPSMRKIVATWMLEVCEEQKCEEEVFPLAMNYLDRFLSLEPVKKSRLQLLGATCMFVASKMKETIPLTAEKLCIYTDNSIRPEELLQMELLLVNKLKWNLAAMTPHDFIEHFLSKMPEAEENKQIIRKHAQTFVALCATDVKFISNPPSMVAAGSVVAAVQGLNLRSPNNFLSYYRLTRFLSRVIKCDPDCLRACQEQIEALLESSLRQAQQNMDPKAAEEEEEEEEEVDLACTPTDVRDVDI

| SMILES | IC50 (pRB in OVCAR3 cells) [nM] | IC50 (CDK2/Cyclin E2) [nM] | IC50 (CDK4/Cyclin D1) [nM] |
| --- | --- | --- | --- |
| CCC12CC(O)CN1C(=O)c1cc(-c3nc(NC4CCN(S(=O)(=O)c5cnn(C)c5)CC4)ncc3C(F)(F)F)sc12 (stereo not drawn) [Example 36, 8a-Ethyl-7-hydroxy-2-(2-((1-((1-methyl-1H-pyrazol-4-yl)sulfonyl)piperidin-4-yl)amino)-5-(trifluoromethyl)pyrimidin-4-yl)-6,7,8,8a-tetrahydro-4H-thieno[2,3-a]pyrrolizin-4-one] | ≤ 100 | ≤ 100 | ≤ 100 |
| CCC12CCCN1C(=O)c1cc(-c3nc(NC4CCN(S(=O)(=O)c5cnn(C)c5)CC4)ncc3C(F)(F)F)sc12 (stereo not drawn) [Example 37, 8a-Ethyl-2-(2-((1-((1-methyl-1H-pyrazol-4-yl)sulfonyl)piperidin-4-yl)amino)-5-(trifluoromethyl)pyrimidin-4-yl)-6,7,8,8a-tetrahydro-4H-thieno[2,3-a]pyrrolizin-4-one] | ≤ 100 | ≤ 100 | ≤ 100 |
| CCC12CC(NC)CN1C(=O)c1cc(-c3nc(NC4CCN(S(C)(=O)=O)CC4)ncc3C(F)(F)F)sc12 (stereo not drawn) [Example 38, 8a-Ethyl-7-(methylamino)-2-(2-((1-(methylsulfonyl)piperidin-4-yl)amino)-5-(trifluoromethyl)pyrimidin-4-yl)-6,7,8,8a-tetrahydro-4H-thieno[2,3-a]pyrrolizin-4-one] | ≤ 100 | ≤ 100 | ≤ 100 |
| CCC12CC(N(C)C)CN1C(=O)c1cc(-c3nc(NC4CCN(S(C)(=O)=O)CC4)ncc3C(F)(F)F)sc12 (stereo not drawn) [Example 39, 7-(Dimethylamino)-8a-ethyl-2-(2-((1-(methylsulfonyl)piperidin-4-yl)amino)-5-(trifluoromethyl)pyrimidin-4-yl)-6,7,8,8a-tetrahydro-4H-thieno[2,3-a]pyrrolizin-4-one] | ≤ 100 | ≤ 100 | ≤ 100 |
| CCC12CC(N)CN1C(=O)c1cc(-c3nc(NC4CCN(S(C)(=O)=O)CC4)ncc3C(F)(F)F)sc12 (stereo not drawn) [Example 40, 7-Amino-8a-ethyl-2-(2-((1-(methylsulfonyl)piperidin-4-yl)amino)-5-(trifluoromethyl)pyrimidin-4-yl)-6,7,8,8a-tetrahydro-4H-thieno[2,3-a]pyrrolizin-4-one] | ≤ 100 | ≤ 100 | ≤ 100 |
| CCNC1CN2C(=O)c3cc(-c4nc(NC5CCN(S(C)(=O)=O)CC5)ncc4C(F)(F)F)sc3C2(CC)C1 (stereo not drawn) [Example 41, 8a-Ethyl-7-(ethylamino)-2-(2-((1-(methylsulfonyl)piperidin-4-yl)amino)-5-(trifluoromethyl)pyrimidin-4-yl)-6,7,8,8a-tetrahydro-4H-thieno[2,3-a]pyrrolizin-4-one] | ≤ 100 | ≤ 100 | ≤ 100 |

The remaining lines, values ahead:

| IC50 (pRB in OVCAR3 cells) [nM] | IC50 (CDK2/Cyclin E2) [nM] | IC50 (CDK4/Cyclin D1) [nM] | SMILES |
| --- | --- | --- | --- |
| ≤ 100 | ≤ 100 | ≤ 100 | [2H]C([2H])([2H])NC1CN2C(=O)c3cc(-c4nc(NC5CCN(S(C)(=O)=O)CC5)ncc4C(F)(F)F)sc3C2(CC)C1 (stereo not drawn) [Example 42, 8a-Ethyl-7-((methyl-d3)amino)-2-(2-((1-(methylsulfonyl)piperidin-4-yl)amino)-5-(trifluoromethyl)pyrimidin-4-yl)-6,7,8,8a-tetrahydro-4H-thieno[2,3-a]pyrrolizin-4-one] |
| 100 to 500 | ≤ 100 | ≤ 100 | CCC12CC(NC)CN1C(=O)c1cc(-c3nc(N[C@H]4CCN(S(C)(=O)=O)C[C@H]4C)ncc3C(F)(F)F)sc12 (stereo partly drawn) [Example 43, 8a-Ethyl-2-(2-(((3R,4S)-3-methyl-1-(methylsulfonyl)piperidin-4-yl)amino)-5-(trifluoromethyl)pyrimidin-4-yl)-7-(methylamino)-6,7,8,8a-tetrahydro-4H-thieno[2,3-a]pyrrolizin-4-one] |
| ≤ 100 | ≤ 100 | ≤ 100 | CCC12CC(NC)CN1C(=O)c1cc(-c3nc(N[C@H]4CCN(S(=O)(=O)c5cnn(C)c5)C[C@H]4C)ncc3C(F)(F)F)sc12 (stereo partly drawn) [Example 44, 8a-Ethyl-2-(2-(((3R,4S)-3-methyl-1-((1-methyl-1H-pyrazol-4-yl)sulfonyl)piperidin-4-yl)amino)-5-(trifluoromethyl)pyrimidin-4-yl)-7-(methylamino)-6,7,8,8a-tetrahydro-4H-thieno[2,3-a]pyrrolizin-4-one] |
| ≤ 100 | ≤ 100 | ≤ 100 | CCC12CC(N)CN1C(=O)c1cc(-c3nc(N[C@H]4CCN(S(C)(=O)=O)C[C@H]4C)ncc3C(F)(F)F)sc12 (stereo partly drawn) [Example 45, 7-Amino-8a-ethyl-2-(2-(((3R,4S)-3-methyl-1-(methylsulfonyl)piperidin-4-yl)amino)-5-(trifluoromethyl)pyrimidin-4-yl)-6,7,8,8a-tetrahydro-4H-thieno[2,3-a]pyrrolizin-4-one] |
| ≤ 100 | ≤ 100 | ≤ 100 | CCC12CC(N)CN1C(=O)c1cc(-c3nc(N[C@H]4CCN(S(=O)(=O)c5cnn(C)c5)C[C@H]4C)ncc3C(F)(F)F)sc12 (stereo partly drawn) [Example 46, 7-Amino-8a-ethyl-2-(2-(((3R,4S)-3-methyl-1-((1-methyl-1H-pyrazol-4-yl)sulfonyl)piperidin-4-yl)amino)-5-(trifluoromethyl)pyrimidin-4-yl)-6,7,8,8a-tetrahydro-4H-thieno[2,3-a]pyrrolizin-4-one] |
| ≤ 100 | ≤ 100 | ≤ 100 | CCC12CC(NC)CN1C(=O)c1cc(-c3nc(N[C@@H]4CCN(S(C)(=O)=O)C[C@H]4F)ncc3C(F)(F)F)sc12 (stereo partly drawn) [Example 47, 8a-Ethyl-2-(2-(((3R,4R)-3-fluoro-1-(methylsulfonyl)piperidin-4-yl)amino)-5-(trifluoromethyl)pyrimidin-4-yl)-7-(methylamino)-6,7,8,8a-tetrahydro-4H-thieno[2,3-a]pyrrolizin-4-one] |
| ≤ 100 | ≤ 100 | ≤ 100 | CCC12CC(NC)CN1C(=O)c1cc(-c3nc(N[C@H]4CCN(S(C)(=O)=O)C[C@H]4F)ncc3C(F)(F)F)sc12 (stereo partly drawn) [Example 48, 8a-Ethyl-2-(2-(((3R,4S)-3-fluoro-1-(methylsulfonyl)piperidin-4-yl)amino)-5-(trifluoromethyl)pyrimidin-4-yl)-7-(methylamino)-6,7,8,8a-tetrahydro-4H-thieno[2,3-a]pyrrolizin-4-one] |
